Substitutions are numbered along the chain they refer to.
Columns and labels:
Assay in all cases: E. coli hemG growth inhibition by herbicide, AtPPO1 variant
Type in all cases: cell-based
Conditions in all cases: read-out: percentage growth inhibition
AtPPO1 F478R = molecular target: T1, AtPPO1 F478R (Arabidopsis thaliana, UniProt P55826, F478R)
T1 construct: expressed in transfected cells; host or cells: E. coli BL21(DE3) hemG, pET24a plasmid
T1 sequence (P55826 35-537 F478R): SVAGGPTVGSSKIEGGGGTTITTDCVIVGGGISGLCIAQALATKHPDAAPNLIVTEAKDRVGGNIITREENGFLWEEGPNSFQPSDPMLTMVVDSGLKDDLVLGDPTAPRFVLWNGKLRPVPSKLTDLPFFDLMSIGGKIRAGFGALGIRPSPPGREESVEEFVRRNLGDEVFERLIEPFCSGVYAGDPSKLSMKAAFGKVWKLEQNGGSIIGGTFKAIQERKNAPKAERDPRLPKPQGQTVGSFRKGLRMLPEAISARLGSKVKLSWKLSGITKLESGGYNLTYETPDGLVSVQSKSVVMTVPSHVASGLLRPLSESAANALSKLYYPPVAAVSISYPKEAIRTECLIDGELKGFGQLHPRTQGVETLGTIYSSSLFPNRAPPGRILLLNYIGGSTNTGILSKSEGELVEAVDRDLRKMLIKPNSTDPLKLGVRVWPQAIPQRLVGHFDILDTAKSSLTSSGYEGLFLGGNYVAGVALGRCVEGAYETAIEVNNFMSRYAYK
Method in brief: (§1)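 E. coli BL21(DE3) ΔhemG::CmR complemented by AtPPO1 variants (pET24a, T7, E. coli codon-optimised); TB + 0.1 mM IPTG, 1:100 inoculum; 6.25 ppm herbicide 0/E or 0.78 ppm herbicide B vs DMSO; 24 h, 37° C, 250 rpm; OD600 at 24 h → % growth inhibition.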

AtPPO1 Q272H = molecular target: T2, AtPPO1 Q272H (Arabidopsis thaliana, UniProt P55826, Q272H)
T2 construct: expressed in transfected cells; host or cells: E. coli BL21(DE3) hemG (hemG replaced by CmR), pET24a plasmid
T2 sequence (P55826 35-537 Q272H): T1 sequence (P55826 35-537 F478R) with Q238H, R444F
Method in brief: as §1

AtPPO1 T431R = molecular target: T3, AtPPO1 T431R (Arabidopsis thaliana, UniProt P55826, T431R)
T3 construct: expressed in transfected cells; host or cells: E. coli BL21(DE3) hemG (pET24a, T7 promoter)
T3 sequence (P55826 35-537 T431R): T1 sequence (P55826 35-537 F478R) with T397R, R444F
Method in brief: as §1

AtPPO1 V365M = molecular target: T4, AtPPO1 V365M (Arabidopsis thaliana, UniProt P55826, V365M)
T4 construct: expressed in transfected cells; host or cells: E. coli BL21(DE3) hemG (pET24a, T7 promoter)
T4 sequence (P55826 35-537 V365M): T1 sequence (P55826 35-537 F478R) with V331M, R444F
Method in brief: as §1

Structure (SMILES)	inhibition at 6.25 ppm (AtPPO1 F478R)	inhibition at 6.25 ppm (AtPPO1 Q272H)	inhibition at 6.25 ppm (AtPPO1 T431R)	inhibition at 6.25 ppm (AtPPO1 V365M)	inhibition at 0.78 ppm (AtPPO1 F478R)	inhibition at 0.78 ppm (AtPPO1 Q272H)	inhibition at 0.78 ppm (AtPPO1 T431R)	inhibition at 0.78 ppm (AtPPO1 V365M)
CC(C)N(C)S(=O)(=O)NC(=O)c1cc(-n2c(=O)cc(C(F)(F)F)n(C)c2=O)c(F)cc1Cl [Herbicide E, saflufenacil]	61%	64%	56%	22%				
C#CCN1C(=O)C(F)(F)Oc2cc(F)c(-n3c(=O)n(C)c(=S)n(C)c3=O)cc21 [Herbicide B, trifludimoxazin]					23%	27%	25%	3%
CCOC(=O)[C@]1(C)CC(c2cc(-n3c(=O)n(C)c(=S)n(C)c3=O)c(F)cc2Cl)=NO1 [Herbicide D, ethyl (5S)-3-[2-chloro-5-(3,5-dimethyl-2,6-dioxo-4-thioxo-1,3,5-triazinan-1-yl)-4-fluoro-phenyl]-5-methyl-4H-isoxazole-5-carboxylate]	30%	28%	28%	42%				
